The numbers were not newly measured in patent US12193458B2, “Sweetening composition and preparation method and use thereof” (HUNAN NUTRAMAX INC., priority 2019, dated 2025), which cites them from elsewhere.

For one series the following is noted: pH value of 3 to 12, heated, under light irradiation.
`C=C1C[C@@]23CC[C@H]4[C@@](C)(CCC[C@@]4(C)C(=O)O[C@@H]4O[C@H](CO)[C@@H](O)[C@H](O)[C@H]4O)[C@@H]2CC[C@]1(O[C@@H]1O[C@H](CO)[C@@H](O)[C@H](O)[C@H]1O)C3` [Rubusoside]: the “decomposition when heated in a water solution” value was “will not decompose significantly”.

The conditions of a further series: component of Rubus suavissimus S. Lee.
`C[C@@H]1CC[C@]2(C(=O)O[C@@H]3O[C@H](CO)[C@@H](O)[C@H](O)[C@H]3O)CC[C@]3(C)C(=CC[C@@H]4[C@@]5(C)C[C@@H](O)[C@H](O)[C@@](C)(CO)[C@@H]5CC[C@]43C)[C@@H]2[C@]1(C)O` [Nigaichigoside F1]: the taste result is on record as “bitter taste”.
As to `C[C@@]12CCC[C@@](C)(C(=O)O[C@@H]3O[C@H](CO)[C@@H](O)[C@H](O)[C@H]3O)[C@H]1CC[C@@]13C[C@@H](CC[C@H]12)[C@@](O)(CO)C3` [Paniculoside IV], the taste entry is given as “tasteless”.
For `C=C1C[C@@]23CC[C@H]4[C@@](C)(CCC[C@@]4(C)C(=O)O)[C@@H]2CC[C@]1(O[C@@H]1O[C@H](CO)[C@@H](O)[C@H](O)[C@H]1O)C3` [Steviolmonoside], the taste entry was “sweet taste”.
Turning to `CC1(C)C(O)CCC2(C)C3CCC4CC3(CCC12)CC4(O)COC1OC(CO)C(O)C(O)C1O` (stereo not shown) [Suavioside A], the taste entry is given as “sweet taste”.
Take `CC1(C)C(=O)CCC2(C)C3CCC4CC3(CCC12)CC4(O)COC1OC(CO)C(O)C(O)C1O` (stereo not shown) [Sugereoside]: the taste entry is listed as “bitter taste”.
On to Suavioside B, for which the taste entry is “sweet taste”.
As for Suavioside C1, the taste entry is listed as “bitter taste”.
In the case of Suavioside D1, the taste result is listed as “tasteless”.
Consider Suavioside D2, for which the taste entry is “bitter taste”.
On to Suavioside E, for which the taste result is listed as “tasteless”.
For the compound Suavioside F, the taste result is “bitter taste”.
Turning to Suavioside G, the taste result was “sweet taste”.
For Suavioside H, the taste result is “sweet taste”.
Turning to Suavioside I, the taste entry is on record as “sweet taste”.
For the compound Suavioside J, the taste result was “sweet taste”.
